Assay results taken from PMC13324451 (The Journal of Biological Chemistry, 2026).

Biological target: T1, RhsF-CT (Chromobacterium violaceum, UniProt Q7NY44)
T1 construct: gene CV_1431; C-terminal toxin domain, residues 1393-1513, 14 kDa; His6-TEV tag, apparently kept
Type: biochemical

NC(=O)c1ccc[n+]([C@@H]2O[C@H](COP(=O)(O)OP(=O)(O)OC[C@H]3O[C@@H](n4cnc5c(N)ncnc54)[C@H](O)[C@@H]3O)[C@@H](O)[C@H]2O)c1 [NAD^+]
RNA ADP-ribosylation, TBE-urea gel and anti-ADP-ribose immunoblot: indicating that RhsF-CT can transfer ADP-ribose from NAD^+ to the RNA
